Experimental data from US20100279935A1, “COMPOSITIONS FOR INDUCING LABOR AND ASSOCIATED METHODS” (priority 2007, published 2010).
Entries after “also recorded” stand apart in the source; their conditions may differ.

Experiments:
Type in all cases: cell-based, human
[1] = test system: myosin light chain phosphorylation (Ser19) in hTERT cells; test: Western blot for phosphorylated myosin light chain at Ser19
Method: (§1) Telomerase immortalized myometrial cells (hTert) were maintained in DMEM/F12 (Mediatech) medium with 10% FBS (Hyclone) with penicillin/streptomycin and gentamycin at 37° C. and 5% CO2. Cells were trypsinized at 90% confluency and plated in T175 cell culture flasks at a 1:5 dilution or 6 well plates at 20,000 cells per well. For pharmacological experiments cells were treated with iodo-melatonin (Tocris; USA), oxytocin (Sigma-Aldrich; USA) or cotreated as described in the Results. Pharmacological inhibitors, 4-phenyl-2-propionamidotetralin (4P-PDOT), a MT2R specific antagonist, the general PKC inhibitor C1, and the phospholipase C inhibitor, U73122 (all from Tocris) were applied as a pretreatment 1 hr prior to application of IMEL or OT. After treatment the cells were trypsinized, pelleted, washed in phosphate-buffered saline, and frozen at −20° C. until further analysis.
For in vitro investigations cultured hTERT cells were collected by trypsinization and gentle scraping. Cells were suspended in PBS and pelleted by centrifugation. Protein extraction was performed according to the method of Shearman and colleagues^15. Following electrophoretic separation on a 10% SDS-polyacrylamide gel, proteins were semi-dry blotted in buffer onto a Whatman PROTRAN Nitrocellulose membrane (Whatman; Germany). Molecular size markers (Amersham) were included. The membrane was incubated for 60 min at 20° C. in blocking buffer containing 5% milk powder before overnight incubation at 4° C. with anti-OTR, anti-MT2R (Santa Cruz Biotechnology), anti-Cx43 antiserum (Millipore) or anti-actin (Sigma) at a dilution of 1:1000 in blocking buffer. Following washing in buffer (20 mM Tris, pH 7.6+[…] NaCl+0.05% Tween-20), the membrane was incubated at 20° C. for 1 h with a peroxidase-conjugated affinity purified goat anti-rabbit immunoglobulin (Sigma) in a 1:2000 dilution. Chemiluminescent signals were then detected with the Pierce ECL Western Blotting Substrate (Pierce; USA) using CL-X Posure film (Pierce). Western blotting for phospho-myosin light chain kinase (Ser19) (Millipore) was performed with the following exceptions. Membranes were blocked with a 5% BSA/TBS solution for one hour. The primary antibody was diluted in TBS at a 1:500 dilution at 4° C. overnight with shaking. The goat anti-rabbit immunoglobulin was diluted 1:2000 in a 5% milk/TBST solution. Densitometric analysis was performed using AIS Image Analysis software (Ontario, Canada) of images acquired with a digital camera. Criterion for assessment of samples as immunonegative was the absence of a band after 1 hr of exposure. Western blots were repeated a minimum of three times to insure reproducibility.

[2] = test system: hTERT myometrial smooth muscle cells; test: Myometrial cell contractility assay (collagen disk retraction); details: for effect of inhibitor on contractility of cells treated with OT, I-MEL or both: pretreatment 1 hr, 4P-PDOT 10 nM, C1 10 μM, U73122 concentration not given
Method: as §1
Myometrial cell contractility was assayed using a collagen disk retraction assay as described by Devost and Zingg^16 plating 10,000 hTERT cells per well. Samples were treated as described in the Results and each treatment was performed in triplicate. Myometrial cell contractility was quantified by capturing images of the fixed collagen disks with a digital camera and analyzing for total area using AIS Image Analysis Software (Ontario, Canada). The results were normalized to the cell-free control sample areas and expressed as a percentage of untreated control area.

[3] = test system: connexin 43 protein in hTERT cells; test: Western blot of Cx43 protein; details: I-MEL-treated hTERT cells (FIG. 3B)
Method: as §1
For in vitro investigations cultured hTERT cells were collected by trypsinization and gentle scraping. Cells were suspended in PBS and pelleted by centrifugation. Protein extraction was performed according to the method of Shearman and colleagues^15. […] Chemiluminescent signals were then detected with the Pierce ECL Western Blotting Substrate (Pierce; USA) using CL-X Posure film (Pierce). […]

[4] = test system: gap junction communication in hTERT cells; test: Lucifer yellow dye migration (scrape loading) assay
Method: Lucifer yellow scrape loading assays were performed in accordance with the procedures of El-Fouly et al^17. Cells were grown to confluency in […] cell culture dishes, washed with warm phosphate buffered saline (PBS) and treated with 2 mL of pre-warmed 0.05% lucifer yellow in PBS solution. The cells were then scraped by drawing a scalpel across the plate. After two minutes at room temperature the plates were washed three times with prewarmed PBS and returned to normal medium. The plates were then photographed at 10 minutes after scraping using a digital camera through a Zeiss Axiovert 40CFL Microscope at a 100× and 200× magnification. Each treatment condition was repeated three times to ensure reproducibility.

[5] = test system: connexin 43 mRNA in hTERT cells; test: Quantitative PCR of Cx43 mRNA; details: for effect of inhibitor on I-MEL-induced Cx43 expression: co-treatment with I-MEL (FIG. 3C)
Method: as §1
Cellular total RNA was extracted with the RNEasy® kit (QIAGEN; Valencia, Calif., USA) according to the manufacturer's protocol. The RNA concentration was measured with the Nanodrop® photometer and then reverse transcribed to cDNA by means of the iScript® reverse transcription system (Bio-Rad Laboratories; USA). Quantitative real-time PCR was performed on a Bio-Rad iCycler® using iQ SYBR Green Supermix® (Bio-Rad), together with 1 μl of sense and antisense primers ([…]) of the transcript of interest and 2 μl of template cDNA. The following thermal cycling parameters were used: initial heat activation of the DNA-polymerase was performed at 95° C. for 5 min. Thereafter 40 cycles at 95° C. (15 sec), 58° C. (30 sec), and 72° C. (30 sec) were run. After thermocycling the iCycler performs an automatic melting curve, which entails cooling to 55° C. for 10 sec and then increasing temperatures in 0.2° C. increments up to 90° C. This controls for primer-dimer formation and other nonspecific effects. Quantification of the data was achieved by the Bio-Rad iCycler software using a standard curve from a primer-specific dilution series for the PCR product. Data were normalized against expression of the housekeeping gene glyceraldehyde-3-phosphate dehydrogenase (GAPDH). The primer sequences used for Cx43, and GAPDH quantification are as follows: […]

## COc1ccc2[nH]c(I)c(CCNC(C)=O)c2c1 [I-MEL, iodo-melatonin]
[1]; 1 nM I-MEL with OT, hTERT cells (FIG. 2D)
  effect of I-MEL on OT-induced myosin light chain phosphorylation: increased dramatically
[1]; 1 nM I-MEL, hTERT cells (FIG. 2D)
  myosin light chain phosphorylation, I-MEL treatment alone: modest increases in myosin light chain phosphorylation
[2]; co-treatment 1 nM I-MEL and 1 nM OT, hTERT cells
  increase in contractility compared to treatment with OT alone: two-fold
[2]; hTERT cells, I-MEL without OT
  contractility by I-MEL alone: modest increases in hTERT contractility
[2]; hTERT cells, OT co-treated with I-MEL (FIG. 2A)
  effect of I-MEL on OT-induced contractility and sensitivity to OT: increase OT-induced contractility in a dose dependent manner
[3]
  Cx43 protein levels: upregulation of Cx43 protein levels
[4]; 1 nM I-MEL pretreated hTERT cells, 10 minutes after scrape loading
  cell coupling / spread of lucifer yellow dye: increased levels of cell coupling
[5]; 1 nM I-MEL, 4 hrs, hTERT cells
  Cx43 mRNA levels after 4 hrs: significant, but transient increases; also recorded: elevated
[5]; 1 nM I-MEL, 8 hrs, hTERT cells
  Cx43 mRNA levels after 8 hrs: returned to untreated levels

## CCC(=O)NC1Cc2ccccc2C(c2ccccc2)C1 (centres unmarked) [4P-PDOT, 4-phenyl-2-propionamidotetralin]
[1]; 10 nM 4P-PDOT or 10 μM C1 pretreatment
  effect of inhibitor pretreatment on I-MEL-induced myosin light chain phosphorylation: abolished
[2]
  effect of inhibitor on contractility of cells treated with OT, I-MEL or both: reduced the synergistic effect of I-MEL to levels corresponding to treatment with OT alone
[4]; 10 nM 4P-PDOT or 10 μM C1 before I-MEL
  effect of inhibitor pretreatment on I-MEL-increased dye spread: blocked
[4]; 4P-PDOT or C1 alone, data not shown
  dye migration, inhibitor alone: dye migration comparable to control levels
[5]
  effect of inhibitor on I-MEL-induced Cx43 expression: abolished the effect of I-MEL on Cx43 expression

## COc1ccc2c(c1)CC[C@@H]1[C@@H]2CC[C@]2(C)[C@@H](NCCCCCCN3C(=O)C=CC3=O)CC[C@@H]12 [U73122]
[2]
  effect of inhibitor on contractility of cells treated with OT, I-MEL or both: completely abolished contractility
[5]
  effect of inhibitor on I-MEL-induced Cx43 expression: abolished the effect of I-MEL on Cx43 expression

## CC[C@H](C)[C@@H]1NC(=O)[C@H](Cc2ccc(O)cc2)NC(=O)[C@@H](N)CSSC[C@@H](C(=O)N2CCC[C@H]2C(=O)N[C@@H](CC(C)C)C(=O)NCC(N)=O)NC(=O)[C@H](CC(N)=O)NC(=O)[C@H](CCC(N)=O)NC1=O [OT, oxytocin]
[1]; OT, hTERT cells (FIG. 2D)
  myosin light chain phosphorylation, OT treatment: increases
